Test: Human HepG2 cell viability assay in 384 well format
Assay type: toxicity, cell-based
Parameters: dose 125 nL, time 70.5 hour; cytotoxicity at 70.5 h: concentration not given beside the values
Conditions: HepG2 cells, read-out: Inhibition

Row | SMILES | cytotoxicity at 70.5 h
1 | Cc1cc(C(=O)Nc2nnn[nH]2)ccc1I | -5.12%
2 | Cc1nn(C)c(C)c1C1CCCN1CC(=O)Nc1nccs1 (configuration not stated) | -0.764%
3 | COc1ccc([C@@H]2CN(Cc3ccncc3)C[C@H]2c2cc[nH]n2)cc1 | -7.91%
4 | CC(=O)N1CCC2(CCN(Cc3ccccn3)C2=O)C1 (configuration not stated) | 3.63%
5 | CS(=O)(=O)c1ccc(NC(=O)N2CCc3sccc3C2)cn1 | 46.4%
6 | Fc1cccc(F)c1Cn1c(C2CCNCC2)cc2cccnc21 | 3.7%
7 | O=C(O)c1cc(S(=O)(=O)Nc2cccc3c2OCCO3)ccc1F | -18.2%
8 | Cc1cccc(-c2ccc(C(=O)NCC(C)(C)C(N)=O)c(=O)[nH]2)c1 | -18.8%
9 | CCOCc1nc2c(c(NC(COC)c3ccccn3)n1)CCNCC2 (configuration not stated) | -3.42%
10 | CNC(=O)[C@@H]1COC[C@H]2CN(C(=O)c3ccc(C)c(C)c3)C[C@H]21 | -7.79%
11 | CCN(C)S(=O)(=O)N1CCCC(c2nc(-c3ccccc3)c[nH]2)C1 (configuration not stated) | 14.3%
12 | Cc1ccc(C(=O)N2Cc3ccccc3C2)cc1N1CCNC1=O | -6.89%
13 | O=C(CCn1cccn1)NS(=O)(=O)N1CCCc2ccccc21 | -8.67%
14 | O[C@H]1[C@H](n2cc(CN3CCCC3)nn2)c2ccccc2C12CCNCC2 | -7.31%
15 | Cc1cc(CC2COCCN(CCc3ccccc3)C2)ncn1 (configuration not stated) | 17.8%
16 | Cc1occc1C(=O)N1CCC2(CCC2NC(=O)c2ccn(C)c2)CC1 (configuration not stated) | -2.29%
17 | CC(C)c1noc(CNc2ccccc2CC(=O)N(C)C)n1 | -2.98%
18 | CCc1nc(C2CCCN2C(=O)CCc2cccs2)no1 (configuration not stated) | -5.42%
19 | Cc1noc(C)c1CN(C)C(=O)C1(N)CCCCC1 | -2.97%
20 | O=C(NCc1ccoc1)Nc1ccc(CN2CCOC2=O)cc1 | 19%
21 | CCc1noc(CN(CC)C(=O)CC2C(=O)NCCN2CC=C(C)C)n1 (configuration not stated) | 1.29%
22 | NCC1CCC(c2c(C(=O)NCCO)sc3ccccc23)CC1 (configuration not stated) | 16.1%
23 | CCc1noc(CN(C)C2CCN(c3sccc3C#N)C2=O)n1 (configuration not stated) | -2.79%

Row | SMILES | cytotoxicity at 70.5 h
24 | O=c1[nH]c(CCN2CCCC2Cn2cncn2)nc2ccccc12 (configuration not stated) | -9.5%
25 | Cc1ccc(C(C(=O)NCCN2CCC(CO)CC2)N(C)C)cc1 (configuration not stated) | 27.1%
26 | Cc1nc(N2CCCC2)nc2c1CCN(C(=O)N1CCCC1)CC2 | -8.89%
27 | O=C(NC1CCN(c2ccccc2OC(F)F)C1)c1c[nH]nn1 (configuration not stated) | -10.2%
28 | CC(C)c1nccn1C(C)C(=O)N1CCN(c2ccccc2Cl)CC1 (configuration not stated) | -4.99%
29 | COc1ccc2nnc(CCCC(=O)Nc3nc4c(s3)CCC4)n2n1 | -17.4%
30 | CC(C)Cn1nc(-c2ccc(C(=O)O)cc2)cc1-c1ccc(F)cc1 | -5.39%
31 | CCOCCC(=O)NC(Cc1ccc(C)cc1)c1ccccn1 (configuration not stated) | 0.116%
32 | CCc1n[nH]c(C2CN(CC(=O)N(C)Cc3ccco3)CCO2)n1 (configuration not stated) | -11.1%
33 | CCC1CN(c2cnn(C)c(=O)c2Br)CCO1 (configuration not stated) | -1.58%
34 | O=S(=O)(c1cn[nH]c1)N1CCCC(O)(CN2CCOCC2)CC1 (configuration not stated) | -3.34%
35 | O=C(c1ccncc1)N1CCC(Cc2cnc3[nH]ccc3c2)CC1 | -5.49%
36 | CCN1CC2(CCN(C(=O)C(C)Oc3ccc(F)cc3F)CC2)OC1=O (configuration not stated) | -1.13%
37 | COc1ccc2c(c1)C1(CCN(Cc3ccccn3)CC1)N(C)CC2 | 0.00866%
38 | COCCN(Cc1cccc(C#N)c1)Cc1nc(C)no1 | 28.5%
39 | COc1ccc2nc(C3CC3)cc(C(=O)NCc3noc(C)n3)c2c1 | -1.37%
40 | CCCc1noc(CCC(=O)N2CCCC2c2ccc(OC)cc2)n1 (configuration not stated) | -16.8%
41 | Cn1cc(CN2CC[C@H](O)[C@@H]2Cc2ccncc2)cn1 | 26%
42 | COc1c(C2CCCN2C(=O)c2sccc2C#N)c(C)nn1C (configuration not stated) | -5.44%
43 | O=C(c1ccno1)N1CCn2cc(CN3CCCCC3)nc2C1 | -2.37%
44 | O=C(c1ccc[nH]1)N1CC2(CCN(c3ncccn3)C2)C1 | 1.3%
45 | Cn1cc(C(=O)N2CCCC(C(=O)CCc3ccccc3)C2)cn1 (configuration not stated) | -23.4%
46 | CN(C)CCN1CC[C@H]2[C@@H]1CCN2Cc1ccc2c(c1)OCO2 | -4.2%

Row | SMILES | cytotoxicity at 70.5 h
47 | CCNC(=O)N1CCC2(CC1)CCn1c(C3CC3)cnc12 | 30.6%
48 | Cc1cnn(CC2CCN(CC(O)c3ccccc3)CC2)c1 (configuration not stated) | 13.9%
49 | Cn1ccnc1CN1CCCN(C(=O)c2ccc3[nH]cnc3c2)CC1 | -8.02%
50 | O=C(NC[C@H]1OC[C@@H](NCc2ccccc2)[C@@H]1O)Nc1ccccc1 | -3.94%
51 | CCCOC(C)C(=O)NCc1cc2n(n1)CCCN(C1CCCCC1)C2 (configuration not stated) | 0.0071%
52 | Cc1n[nH]c2c1C(c1ccc(O)c(Cl)c1)SCC(=O)N2 (configuration not stated) | 1.38%
53 | O=C(NCC1OCCc2cn(CC3CC3)nc21)c1ccsc1 (configuration not stated) | 47.4%
54 | Cn1ncc(Cl)c1C(=O)N1CCC(c2nnsc2S(C)(=O)=O)CC1 | 7.94%
55 | CCCn1cnnc1CNC(=O)C1COc2ccc(OC)cc2C1 (configuration not stated) | 20.1%
56 | O=C(N[C@H]1CN2CCC1CC2)c1cc(Cn2cnc3ccccc32)[nH]n1 | -5.02%
57 | CCCc1cc(C(=O)N(C)Cc2ccc(OC)c3ncccc23)n(C)n1 | 2%
58 | Cn1c(NCC(O)c2ccc(F)cc2F)c(C#N)c(=O)n(C)c1=O (configuration not stated) | -5.92%
59 | CCc1nc(C2CCCN(C(=O)c3ccc4[nH]cnc4c3)C2)no1 (configuration not stated) | 12.5%
60 | COc1ccc(F)cc1C(C(=O)O)N1CCCN(C2CCCC2)CC1 (configuration not stated) | -5.48%
61 | COCC(=O)N1CCO[C@H]2[C@H](OC)CC[C@@H]21 | -16.2%
62 | Cc1ccc(-c2ccnc(NCC(O)c3ccc(O)cc3)n2)c(C)n1 (configuration not stated) | -4.44%
63 | COc1cc(N2CCCC(c3ncc[nH]3)C2)ncn1 (configuration not stated) | -1.53%
64 | CN(Cc1ccc(F)cc1)Cc1cc2c(cc1Br)OCCO2 | -8.04%
65 | COc1cccc(-c2cc(C(=O)N3N=C(C)CC3(O)C(F)F)[nH]n2)c1 (configuration not stated) | -11%
66 | COCCN1CCC(CN(CC2CCCO2)C(=O)Cc2cccs2)CC1 (configuration not stated) | -4.23%
67 | Cc1nc(CN2CCO[C@H]3[C@H](OCC(=O)N(C)C)CC[C@@H]32)cs1 | 17.3%
68 | Cc1cnc(N2C[C@@H]3[C@@H](C2)OCC(=O)N3CCN(C)C)nc1 | -3.72%
69 | COCc1nc2ncc3c(=O)n(-c4ccc(OC)cc4)ccc3n2n1 | -5.86%

Row | SMILES | cytotoxicity at 70.5 h
70 | O=C(Nc1ccc(Cn2cccn2)cc1)N1CCC(CO)CC1 | -5.76%
71 | CCN(CC)C(=O)c1ccn(COc2ccc(F)cc2)n1 | -10.8%
72 | Cc1ccc(CN2CCCC(c3nn(C)c4nccnc34)C2)s1 (configuration not stated) | 9.04%
73 | CC(=O)c1cc(C(=O)N2CC[C@@H]3CC[C@H](C2)N3C)c(=O)[nH]c1C | 22.4%
74 | CCc1cnc(COc2ccc(OC3CCCCNC3=O)cc2)o1 (configuration not stated) | -4.27%
75 | CCCN1CCCN(C(=O)C(CC)N2CCCC2=O)CC1 (configuration not stated) | -14.5%
76 | c1cnc(NCc2cncc3c2CCN(CC2CC2)C3)nc1 | 3.44%
77 | CC1N(CC2CC2)C(=O)COC12CCN(Cc1nccs1)CC2 (configuration not stated) | -8.15%
78 | CCSc1cc(C(=O)NC2CCN(C(=O)c3ccccc3)CC2)ccn1 | -17.6%
79 | O=C(CCCOc1ccc(F)cc1)N1CCCC(n2cccn2)C1 (configuration not stated) | 0.781%
80 | N#CCCN(c1ccc(F)cc1)S(=O)(=O)CC1CCCCO1 (configuration not stated) | -1.6%
81 | CCN1CCOCC12CCN(c1ccc(C#N)cc1)CC2 | -6.86%
82 | O=C1COc2cccc(OCc3ccccn3)c2N1 | -0.596%
83 | N#Cc1ccc(NCC(=O)Nc2ncn(Cc3cccnc3)n2)cc1 | -6.44%
84 | C[S+]([O-])c1nncn1CCCc1ccc(Cl)cc1 (configuration not stated) | -2.94%
85 | Cc1ccc(-n2ccnc2-c2cn(C3CCNCC3)nn2)c(Cl)c1 | 2.06%
86 | Cc1ccc(OCCN2CCCC(c3cc(C(N)=O)[nH]n3)C2)cc1 (configuration not stated) | -5.38%
87 | CCC(C)(CC(=O)OC)NC(=O)c1ccc(C(C)=O)cc1 (configuration not stated) | 23.7%
88 | CCNC(=O)N1C[C@@H](NC(C)=O)[C@H](c2ccc(C)o2)C1 | -2.82%
89 | Cc1cnc(C(=O)N2CCOCC2c2ccccc2)cn1 (configuration not stated) | -10.2%
90 | COc1ccc(S(=O)(=O)N2CCC[C@@H]3CN(C(=O)C4CC4)C[C@@H]32)cc1 | 50%
91 | Cc1nc(C)n(CC2CCCN2c2ncnc3c2CCC3)n1 (configuration not stated) | 15.2%
92 | O=C1[C@H]2CC[C@H](CN(c3ncnc4ccsc34)C2)N1CC1CC1 | -11%

Row | SMILES | cytotoxicity at 70.5 h
93 | Cc1cnc(N2C(=O)CSC2c2ccc(F)cc2)s1 (configuration not stated) | -5.25%
94 | COCCc1noc(CNC2CCCN(c3cccnn3)C2)n1 (configuration not stated) | 11%
95 | CC(=O)c1c(C)nn(S(=O)(=O)c2ccccc2)c1C | 3.79%
96 | CCN(C)C(=O)c1cc(-c2cn(C(C)C)cn2)n2ccccc12 | 26.7%
97 | Cc1cccc(S(=O)(=O)NC(=O)CN(C)Cc2ccccc2)c1 | 1.15%
98 | c1cncc(CN2CCC(NCCc3ccc4c(c3)OCO4)CC2)c1 | 0.189%
99 | O=C(c1ccnnc1)N1CCc2ncnc(C3CCOC3)c2CC1 (configuration not stated) | -9.59%
100 | CCO[C@@H]1CC[C@H]2[C@H]1OCCN2S(=O)(=O)C1CC1 | -11.4%
101 | O=C(Cc1ccccc1)N1CCC(c2nnc(-c3ccccn3)o2)CC1 | 21.6%
102 | Cc1nc(C)n(CCCNc2ncnc3onc(C)c23)n1 | -3.47%
103 | Cc1ccc(NC(=O)NC(C)(C)c2noc(C)n2)cc1 | 7.68%
104 | Cc1nc(CN2CCN(C(=O)c3c(C)noc3C)CC2)cs1 | -3.65%
105 | CCOc1c(CNC2CSCCSC2)cccc1OC | 20.2%
106 | Cc1nn(CCC#N)c(C)c1[C@@H]1C=C[C@@H](NCc2cccc(Cl)c2)C1 | -4.45%
107 | COCCN1CC[C@@H](OC)[C@@H]1Cc1ccccc1 | 15.6%
108 | CC(C)CCC(=O)N1CCC(c2nnc(CN(C)CCO)n2C)CC1 | -2.45%
109 | Cc1cc(C2CCCN(CC(=O)N3CCc4ccccc43)C2)n[nH]1 (configuration not stated) | -6.5%
110 | O=C(c1cnccn1)N1CCN(c2ccnc3ccsc23)CC1 | -13.2%
111 | N#Cc1ccccc1C(=O)N1C[C@@H](CN2CCCCCC2)[C@@H](CO)C1 | -7.65%
112 | COc1ccc(CCC(=O)N(C(C)C)C2CCOCC2)cc1 | -6.93%

Source: ChEMBL document CHEMBL3507680, “University of Dundee, Gates Library screen for HepG2 cell viability”
